Reference: patent publication US12729181B2, “Compounds, compositions, and methods for modulating calcium ion homeostasis” (The Regents of the University of California, priority 2020, dated 2026)

System: tre^tc318 mutant embryos
Experiment: Compound rescue screen: restoration of persistent heartbeat in tremblor embryos
Format: in vivo, Zebrafish
Conditions: for responders at 10 µM / responders at 15 µM / responders at 20 µM: Danio rerio, 48 h; for responders at 10 µM: read-out: Rescue at 10 uM (%); for responders at 15 µM: read-out: Rescue at 15 uM (%); for responders at 20 µM: read-out: Rescue at 20 uM (%); for Rescue at 10 uM (%): 10 uM from 30 hpf; for Rescue at 10 uM (%) / Rescue at 15 uM (%) / Rescue at 20 uM (%): cardiac function by visual inspection at 2 dpf, 10 embryos per well; for Rescue at 15 uM (%): 15 uM from 30 hpf; for Rescue at 20 uM (%): 20 uM from 30 hpf
Method: Zebrafish of the mutant line tremblor (tre^tc318) were maintained and bred as described previously in the literature. C. f. Langenbacher A D, et al., PNAS, 2005, 102(49), 17699-17704.
Exemplary compounds were screened for their ability to partially or completely restore persistent heartbeat in tre^tc318 embryos. 10 tre^tc318 mutant embryos were placed in each well of a 24-well plate and raised in the presence of individual compounds at various concentrations (5, 10, 15 and 20 μM) from 30 hpf. Cardiac function was analyzed by visual inspection at 2 dpf. The hearts of tre^tc318 embryos manifest a chaotic movement resembling cardiac fibrillation with sporadic contractions. Compounds that elicited persistent coordinated cardiac contractions were validated by rescreening at least once on another 10 tre^tc318 mutant embryos.

Compound: CCOC(=O)C1=CCN(S(=O)(=O)c2ccccc2C)C1c1ccc(Cl)cc1 (centres unmarked) [FS017]
- responders at 10 µM: 25%
- responders at 15 µM: 60%
- responders at 20 µM: 20%

Compound: CCOC(=O)C1=CCN(S(=O)(=O)c2ccccc2C)C1c1ccc(C)cc1 (centres unmarked) [FS018]
- responders at 10 µM: 0%

Compound: CCOC(=O)C1=CCN(S(=O)(=O)c2ccccc2C)C1c1ccc(Cl)c(Cl)c1 (centres unmarked) [FS019]
- responders at 10 µM: 30%
- responders at 15 µM: 40%
- responders at 20 µM: 30%

Compound: CCOC(=O)C1=CCN(S(=O)(=O)c2ccccc2C)C1c1cccc(Cl)c1 (centres unmarked) [FS020]
- responders at 10 µM: 0%

Compound: CCOC(=O)C1=CCN(S(=O)(=O)c2ccccc2C)C1c1cccc(Br)c1 (centres unmarked) [FS021]
- responders at 10 µM: 10%

Compound: CCOC(=O)C1=CCN(S(=O)(=O)c2ccccc2C)C1c1cccc(F)c1 (centres unmarked) [FS022]
- responders at 10 µM: 0%

Compound: CCOC(=O)C1=CCN(S(=O)(=O)c2ccccc2Cl)C1c1cccc(Cl)c1 (centres unmarked) [FS024]
- responders at 10 µM: 0%

Compound: CCOC(=O)C1=CCN(S(=O)(=O)c2ccccc2C)C1c1cccc(C)c1 (centres unmarked) [FS025]
- responders at 10 µM: 0%

Compound: CCOC(=O)C1=CCN(S(=O)(=O)c2ccccc2Cl)C1c1cccc(Br)c1 (centres unmarked) [FS026]
- responders at 10 µM: 0%

Compound: CCOC(=O)C1=CCN(S(=O)(=O)c2ccccc2Cl)C1c1cccc(F)c1 (centres unmarked) [FS027]
- responders at 10 µM: 0%

Compound: CCOC(=O)C1=CCN(S(=O)(=O)c2ccccc2Cl)C1c1cccc(C)c1 (centres unmarked) [FS028]
- responders at 10 µM: 0%

Compound: CCOC(=O)C1=CCN(S(=O)(=O)c2ccccc2Br)C1c1ccc(Cl)c(Cl)c1 (centres unmarked) [FS029]
- responders at 10 µM: 70%
- responders at 15 µM: 10%
- responders at 20 µM: 10%

Compound: CCOC(=O)C1=CCN(S(=O)(=O)c2ccccc2Br)C1c1cccc(Cl)c1 (centres unmarked) [FS030]
- responders at 10 µM: 0%

Compound: CCOC(=O)C1=CCN(S(=O)(=O)c2ccccc2Br)C1c1cccc(Br)c1 (centres unmarked) [FS031]
- responders at 10 µM: 0%

Compound: CCOC(=O)C1=CCN(S(=O)(=O)c2ccccc2Br)C1c1cccc(F)c1 (centres unmarked) [FS032]
- responders at 10 µM: 0%

Compound: CCOC(=O)C1=CCN(S(=O)(=O)c2ccccc2Br)C1c1cccc(C)c1 (centres unmarked) [FS033]
- responders at 10 µM: 0%

Compound: CCOC(=O)C1=CCN(S(=O)(=O)c2ccccc2F)C1c1ccc(Cl)c(Cl)c1 (centres unmarked) [FS034]
- responders at 10 µM: 65%
- responders at 15 µM: 30%
- responders at 20 µM: 20%

Compound: CCOC(=O)C1=CCN(S(=O)(=O)c2ccccc2F)C1c1cccc(Cl)c1 (centres unmarked) [FS035]
- responders at 10 µM: 0%

Compound: CCOC(=O)C1=CCN(S(=O)(=O)c2ccccc2F)C1c1cccc(Br)c1 (centres unmarked) [FS036]
- responders at 10 µM: 0%

Compound: CCOC(=O)C1=CCN(S(=O)(=O)c2ccccc2F)C1c1cccc(F)c1 (centres unmarked) [FS037]
- responders at 10 µM: 0%

Compound: CCOC(=O)C1=CCN(S(=O)(=O)c2ccccc2F)C1c1cccc(C)c1 (centres unmarked) [FS038]
- responders at 10 µM: 25%

Compound: CCOC(=O)C1=CCN(S(=O)(=O)c2ccccc2C)C1c1ccc(Br)cc1 (centres unmarked) [FS039]
- responders at 10 µM: 33%

Compound: CCOC(=O)C1=CCN(S(=O)(=O)c2ccccc2Cl)C1c1ccc(Cl)cc1 (centres unmarked) [FS041]
- responders at 10 µM: 44%
- responders at 15 µM: 30%
- responders at 20 µM: 20%

Compound: CCOC(=O)C1=CCN(S(=O)(=O)c2ccccc2Cl)C1c1ccc(Br)cc1 (centres unmarked) [FS042]
- responders at 10 µM: 0%

Compound: CCOC(=O)C1=CCN(S(=O)(=O)c2ccccc2Cl)C1c1ccc(F)cc1 (centres unmarked) [FS043]
- responders at 10 µM: 33%

Compound: CCOC(=O)C1=CCN(S(=O)(=O)c2ccccc2Cl)C1c1ccc(C)cc1 (centres unmarked) [FS044]
- responders at 10 µM: 0%

Compound: CCOC(=O)C1=CCN(S(=O)(=O)c2ccccc2Br)C1c1ccc(Br)cc1 (centres unmarked) [FS046]
- responders at 10 µM: 60%
- responders at 15 µM: 10%
- responders at 20 µM: 10%

Compound: CCOC(=O)C1=CCN(S(=O)(=O)c2ccccc2Br)C1c1ccc(F)cc1 (centres unmarked) [FS047]
- responders at 10 µM: 20%

Compound: CCOC(=O)C1=CCN(S(=O)(=O)c2ccccc2Br)C1c1ccc(C)cc1 (centres unmarked) [FS048]
- responders at 10 µM: 0%

Compound: CCOC(=O)C1=CCN(S(=O)(=O)c2ccccc2C)C1c1ccccc1 (centres unmarked) [FS053]
- responders at 10 µM: 0%

Compound: CCOC(=O)C1=CCN(S(=O)(=O)c2ccccc2Cl)C1c1ccccc1 (centres unmarked) [FS054]
- responders at 10 µM: 0%

Compound: CCOC(=O)C1=CCN(S(=O)(=O)c2ccccc2Br)C1c1ccccc1 (centres unmarked) [FS055]
- responders at 10 µM: 0%

Compound: CCOC(=O)C1=CCN(S(=O)(=O)c2ccccc2F)C1c1ccccc1 (centres unmarked) [FS056]
- Rescue at 10 uM (%): 20%
- Rescue at 15 uM (%): 0%
- Rescue at 20 uM (%): 0%

Compound: CCOC(=O)C1=CCN(S(=O)(=O)c2ccc(C)cc2)C1c1ccc(C)cc1 (centres unmarked) [FS057]
- Rescue at 10 uM (%): 60%
- Rescue at 15 uM (%): 70%
- Rescue at 20 uM (%): 60%

Compound: CCOC(=O)C1=CCN(S(=O)(=O)c2ccc(C)cc2)C1c1ccc(CC)cc1 (centres unmarked) [FS058]
- responders at 10 µM: 58%
- responders at 15 µM: 80%
- responders at 20 µM: 45%

Compound: CCOC(=O)C1=CCN(S(=O)(=O)c2ccc(C)cc2)C1c1ccc2c(c1)OCO2 (centres unmarked) [FS059]
- responders at 10 µM: 20%

Compound: CCOC(=O)C1=CCN(S(=O)(=O)c2ccc(C)cc2)C1c1ccc(C#N)cc1 (centres unmarked) [FS060]
- responders at 10 µM: 80%
- responders at 15 µM: 60%
- responders at 20 µM: 0%

Compound: CCOC(=O)C1=CCN(S(=O)(=O)c2ccc(C)cc2)C1c1ccc(C(=O)OCC)cc1 (centres unmarked) [FS061]
- responders at 10 µM: 40%
- responders at 15 µM: 56%
- responders at 20 µM: 40%

Compound: CCOC(=O)C1=CCN(S(=O)(=O)c2ccc(C)cc2)C1c1ccccc1F (centres unmarked) [FS062]
- Rescue at 10 uM (%): 50%
- Rescue at 15 uM (%): 90%
- Rescue at 20 uM (%): 60%

Compound: CCOC(=O)C1=CCN(S(=O)(=O)c2ccc(C)cc2)C1c1ccc(Cl)cc1 (centres unmarked) [FS063]
- Rescue at 10 uM (%): 40%

Compound: CCOC(=O)C1=CCN(S(=O)(=O)c2ccc(C)cc2)C1c1cccc(Cl)c1 (centres unmarked) [FS064]
- Rescue at 10 uM (%): 20%

Compound: CCOC(=O)C1=CCN(S(=O)(=O)c2ccc(C)cc2)C1c1ccc(Cl)c(Cl)c1 (centres unmarked) [FS065]
- responders at 10 µM: 11%

Compound: CCOC(=O)C1=CCN(S(=O)(=O)c2ccc(C)cc2)C1c1ccc(Br)cc1 (centres unmarked) [FS066]
- Rescue at 10 uM (%): 11%

Compound: CCOC(=O)C1=CCN(S(=O)(=O)c2ccc(C)cc2)C1c1cccc(Br)c1 (centres unmarked) [FS067]
- Rescue at 10 uM (%): 20%

Compound: CCOC(=O)C1=CCN(S(=O)(=O)c2ccc(C)cc2)C1c1cccc2ccccc12 (centres unmarked) [FS068]
- Rescue at 10 uM (%): 0%
- Rescue at 15 uM (%): 0%
- Rescue at 20 uM (%): 0%

Compound: CCOC(=O)C1=CCN(S(=O)(=O)c2ccc(C)cc2)C1c1ccc(C(C)C)cc1 (centres unmarked) [FS070]
- Rescue at 10 uM (%): 0%

Compound: CCOC(=O)C1=CCN(S(=O)(=O)c2ccccc2)C1c1ccc(Cl)cc1 (centres unmarked) [FS072]
- Rescue at 10 uM (%): 60%
- Rescue at 15 uM (%): 70%
- Rescue at 20 uM (%): 40%

Compound: CCOC(=O)C1=CCN(S(=O)(=O)c2ccccc2C(=O)OC)C1c1ccc(Cl)cc1 (centres unmarked) [FS073]
- Rescue at 10 uM (%): 40%

Compound: CCOC(=O)C1=CCN(S(=O)(=O)c2ccccc2[N+](=O)[O-])C1c1ccc(C)cc1 (centres unmarked) [FS075]
- Rescue at 10 uM (%): 0%

Compound: CCOC(=O)C1=CCN(S(=O)(=O)c2ccccc2C(=O)OC)C1c1ccc(C)cc1 (centres unmarked) [FS076]
- responders at 10 µM: 40%
- responders at 15 µM: 60%
- responders at 20 µM: 10%

Compound: CCOC(=O)C1=CCN(S(=O)(=O)c2ccccc2)C1c1ccc(C)cc1 (centres unmarked) [FS077]
- Rescue at 10 uM (%): 30%

Compound: CCOC(=O)C1=CCN(S(=O)(=O)c2ccc(Cl)cc2)C1c1ccc(Cl)cc1 (centres unmarked) [FS085]
- Rescue at 10 uM (%): 89%
- Rescue at 15 uM (%): 80%
- Rescue at 20 uM (%): 80%

Compound: CCOC(=O)C1=CCN(S(=O)(=O)c2ccc(Cl)cc2)C1c1ccc(C)cc1 (centres unmarked) [FS086]
- Rescue at 10 uM (%): 11%

Compound: CCOC(=O)C1=CCN(S(=O)(=O)c2ccc(Cl)cc2)C1c1ccc(Cl)c(Cl)c1 (centres unmarked) [FS087]
- responders at 10 µM: 22%
- responders at 15 µM: 0%
- responders at 20 µM: 0%

Compound: CCOC(=O)C1=CCN(S(=O)(=O)c2ccc(Cl)cc2)C1c1cccc(Cl)c1 (centres unmarked) [FS088]
- responders at 10 µM: 0%

Compound: CCOC(=O)C1=CCN(S(=O)(=O)c2ccc(Cl)cc2)C1c1cccc(Br)c1 (centres unmarked) [FS089]
- responders at 10 µM: 0%

Compound: CCOC(=O)C1=CCN(S(=O)(=O)c2ccc(Cl)cc2)C1c1cccc(F)c1 (centres unmarked) [FS090]
- responders at 10 µM: 40%

Compound: CCOC(=O)C1=CCN(S(=O)(=O)c2ccc(Cl)cc2)C1c1cccc(C)c1 (centres unmarked) [FS091]
- responders at 10 µM: 0%

Compound: CCOC(=O)C1=CCN(S(=O)(=O)c2ccc(Br)cc2)C1c1ccc(Cl)c(Cl)c1 (centres unmarked) [FS092]
- responders at 10 µM: 0%
- responders at 15 µM: 11%
- responders at 20 µM: 11%

Compound: CCOC(=O)C1=CCN(S(=O)(=O)c2ccc(Br)cc2)C1c1cccc(Cl)c1 (centres unmarked) [FS093]
- responders at 10 µM: 0%

Compound: CCOC(=O)C1=CCN(S(=O)(=O)c2ccc(Br)cc2)C1c1cccc(Br)c1 (centres unmarked) [FS094]
- responders at 10 µM: 11%
- responders at 15 µM: 75%
- responders at 20 µM: 25%

Compound: CCOC(=O)C1=CCN(S(=O)(=O)c2ccc(Br)cc2)C1c1cccc(F)c1 (centres unmarked) [FS095]
- responders at 10 µM: 40%

Compound: CCOC(=O)C1=CCN(S(=O)(=O)c2ccc(Br)cc2)C1c1cccc(C)c1 (centres unmarked) [FS096]
- responders at 10 µM: 22%

Compound: CCOC(=O)C1=CCN(S(=O)(=O)c2ccc(Cl)cc2)C1c1ccc(F)cc1 (centres unmarked) [FS098]
- responders at 10 µM: 40%
- responders at 15 µM: 44%
- responders at 20 µM: 89%

Compound: CCOC(=O)C1=CCN(S(=O)(=O)c2ccc(Br)cc2)C1c1ccc(Cl)cc1 (centres unmarked) [FS099]
- responders at 10 µM: 0%
- responders at 15 µM: 33%

Compound: CCOC(=O)C1=CCN(S(=O)(=O)c2ccc(Br)cc2)C1c1ccc(Br)cc1 (centres unmarked) [FS100]
- responders at 10 µM: 0%
- responders at 15 µM: 33%

Compound: CCOC(=O)C1=CCN(S(=O)(=O)c2ccc(Br)cc2)C1c1ccc(F)cc1 (centres unmarked) [FS101]
- responders at 10 µM: 20%

Compound: CCOC(=O)C1=CCN(S(=O)(=O)c2ccc(Br)cc2)C1c1ccc(C)cc1 (centres unmarked) [FS102]
- responders at 10 µM: 0%
